According to PubChem BioAssay AID1054 (Sanford-Burnham Center for Chemical Genomics, 2008):
Values joined by “and” are separate entries in the source; they are usually repeats but may differ in a detail not shown here. Equal entries are not always repeated. One block for each compound: values may come before it. Active and inactive are the calls of the source. How the calls were made is not given here.

Target: Dual specificity protein phosphatase 6 (Rattus norvegicus) (UniProt Q64346)
Assay: DUSP6 phosphatase inhibition, redox-sensitive – biochemical, rat enzyme, secondary assay (AID 1054)
Settings: recombinant MKP-3 phosphatase activity, redox-state secondary assay

Chain of Dual specificity protein phosphatase 6 (Rattus norvegicus) (Q64346 whole entry, looked up): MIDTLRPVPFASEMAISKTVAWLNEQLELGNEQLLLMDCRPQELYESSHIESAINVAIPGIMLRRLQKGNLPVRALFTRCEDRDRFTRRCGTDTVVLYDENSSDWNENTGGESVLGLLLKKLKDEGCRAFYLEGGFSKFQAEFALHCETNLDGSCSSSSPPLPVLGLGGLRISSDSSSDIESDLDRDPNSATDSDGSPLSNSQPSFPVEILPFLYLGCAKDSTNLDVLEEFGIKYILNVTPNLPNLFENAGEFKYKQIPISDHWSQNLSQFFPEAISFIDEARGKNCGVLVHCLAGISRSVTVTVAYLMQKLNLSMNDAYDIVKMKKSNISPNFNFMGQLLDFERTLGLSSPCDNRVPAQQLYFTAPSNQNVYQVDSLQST

SMILES: Cc1cc([N+](=O)[O-])cc2c1NC(C(=O)O)C1CC=CC21 (centres undefined)
IC50: > 100 µM (inactive)

SMILES: CCC(CC)NC(=S)c1ccc(O)c(OC)c1
IC50: 4.16 µM

SMILES: CCCCCCCCCCCCCCCCCCC=CCCCCCC(=O)O
IC50: > 100 µM (inactive)

SMILES: O=C(O)C1Nc2cc(C(F)(F)F)ccc2S(=O)(=O)N1 (centres undefined)
IC50: > 100 µM (inactive)

SMILES: CSc1nnc(-c2ccco2)c(-c2ccco2)n1
IC50: 99.7 µM

SMILES: Cc1cc(I)cc2c1NC(C(=O)O)C1CC=CC21 (centres undefined)
IC50: > 100 µM (inactive)

SMILES: COc1cc(C(=S)NC2CCCC2)ccc1O
IC50: 3.77 µM

SMILES: O=C(O)C1Nc2c(O)cccc2C2C=CCC12 (centres undefined)
IC50: 10.5 µM and 14.6 µM

Results, then the compound that gave them:

IC50: 11.7 µM
SMILES: Cc1cc(C)c2nc3s/c(=C\c4ccc(-c5ccccc5C(=O)O)o4)c(=O)n3c2c1

IC50: 16.8 µM
SMILES: CCOC(=O)C1=C(C)N=c2sc(=Cc3ccc(OCC(=O)O)cc3)c(=O)n2C1c1ccc(Cl)cc1 (centres undefined)

IC50: > 100 µM (inactive)
SMILES: CC(C)CNc1nc(=O)n(-c2ccc(F)cc2)c(=O)[nH]1

IC50: > 100 µM (inactive)
SMILES: Clc1cccc(Cl)c1COc1nnc(-c2cccs2)c(-c2cccs2)n1

IC50: 25.2 µM
SMILES: O=C(O)C1Nc2ccccc2C2C=CCC12 (centres undefined)

IC50: > 100 µM (inactive)
SMILES: CCn1c(=O)n(C)c(=O)n([C@@H](Cc2ccccc2)C(N)=O)c1=O

IC50: > 100 µM (inactive)
SMILES: NC(=O)[C@H](Cc1ccccc1)n1c(=O)[nH]c(=O)n(-c2ccc(Cl)cc2)c1=O

IC50: > 100 µM (inactive)
SMILES: Cc1ccccc1Cn1c(=O)n(-c2ccccc2)c(=O)n([C@@H](C)C(N)=O)c1=O

IC50: > 100 µM (inactive)
SMILES: CCOC(=O)C1Nc2c(OC)cccc2C2OCCC12 (centres undefined)

IC50: > 100 µM (inactive)
SMILES: COCCCNc1nc(=O)n(-c2ccc(F)cc2)c(=O)[nH]1

IC50: > 100 µM (inactive)
SMILES: CCOC(=O)C1Nc2c(OC)cccc2C2OCCCC12 (centres undefined)
